# In US12128114B2, “177Lu-DOTA-HYNIC-iPSMA as a therapeutic radiopharmaceutical targeting prostate-specific membrane antigen” (INSTITUTO NACIONAL DE INVESTIGACIONES NUCLEARES, priority 2018, dated 2024):
# How the values were obtained:
# [1] = tested on: metastatic prostate cancer lesions; experiment: Radiotherapeutic potential in prostate cancer patients (68Ga-PSMA-11 PET/CT and serum PSA); type: in vivo, human
# Description: To evaluate the radiotherapeutic potential, between one and four cycles of ^177Lu-DOTA-HYNIC-iPSMA (3.7 or 7.4 GBq) were administered to 11 patients (mean age: 66 years; range: 45-86) every 8-10 weeks. The response was evaluated using images with ^68Ga-PSMA-11 PET/CT (radiopharmaceutical with a proven affinity in clinical practice and a high-resolution technique for the specific detection of metastatic prostate cancer lesions) and determining serum prostate-specific antigen (PSA) levels before and after treatment.
# protein PSMA = molecular target: T1, protein PSMA (Homo sapiens, UniProt Q04609); experiment: Saturation studies in cancer cells positive for the protein PSMA (LNCaP); type: binding
# T1 construct: saturation studies in cancer cells positive for the protein PSMA (LNCaP); endogenous in cells; host or cells: LNCaP
# LNCaP-induced tumors = experiment: Biodistribution assays in nude mice with LNCaP-induced tumors; type: in vivo
# [2] = Stability of the radiopharmaceutical post-labelling (radiochemical purity); type: physicochemical; conditions: for more than 7 days post-labelling
# Description: After reconstitution in 1.1 mL sodium acetate 1 M buffer solution pH 5.0 containing the sterile and pyrogen-free solution of lutetium-177 chloride (^177LuCl3) and incubation in a dry bath at 95° C. for 30 minutes, said formulation gave a clear, aqueous solution of the compound to be patented ^177Lu-DOTA-HYNIC-iPSMA (FIG. 1) with a radiochemical purity of more than 98%, as determined by reverse-phase HPLC, which presents the radio-chromatogram shown in FIG. 3.
# (§1) The radiopharmaceutical remains stable, with a radiochemical purity of more than 98% for more than 7 days post-labelling. In vitro stability tests in human serum show a serum protein binding of 6.5±1.8% and a high radiochemical stability (>98%).
# [3] = Biokinetics and dosimetry in healthy subjects (whole-body images, OLINDA/EXM); type: in vivo, human
# Description: To determine the biokinetics and dosimetry for the radiopharmaceutical, whole-body images were acquired for five healthy subjects at 20 mins and 6, 24, 48 and 120 h post-administration of ^177Lu-DOTA-HYNIC-iPSMA (185 MBq). The sequence of images was used to extrapolate the time-activity curves in each organ to adjust the biokinetic model and calculate the total number of disintegrations (N) that occurred in the source regions. The values of N were used in the OLINDA/EXM code to calculate the internal doses of radiation. […] Uptake and excretion is mainly renal, with lower hepatic uptake and high uptake in the […], salivary, and lachrymal glands. The average doses absorbed were 0.23, 0.28, 0.88, and 1.17 mGy/MBq for the spleen, liver, kidney, and salivary glands, respectively.
# [4] = In vitro stability tests in human serum; type: in vitro ADME
# Text: as §1
# [5] = Toxicity in balb-C laboratory mice; type: in vivo; conditions: dose of 40 mg/kg
# prostate cancer = conditions: clinical studies, literature; cited from earlier work
# T1 sequence (Q04609 whole entry): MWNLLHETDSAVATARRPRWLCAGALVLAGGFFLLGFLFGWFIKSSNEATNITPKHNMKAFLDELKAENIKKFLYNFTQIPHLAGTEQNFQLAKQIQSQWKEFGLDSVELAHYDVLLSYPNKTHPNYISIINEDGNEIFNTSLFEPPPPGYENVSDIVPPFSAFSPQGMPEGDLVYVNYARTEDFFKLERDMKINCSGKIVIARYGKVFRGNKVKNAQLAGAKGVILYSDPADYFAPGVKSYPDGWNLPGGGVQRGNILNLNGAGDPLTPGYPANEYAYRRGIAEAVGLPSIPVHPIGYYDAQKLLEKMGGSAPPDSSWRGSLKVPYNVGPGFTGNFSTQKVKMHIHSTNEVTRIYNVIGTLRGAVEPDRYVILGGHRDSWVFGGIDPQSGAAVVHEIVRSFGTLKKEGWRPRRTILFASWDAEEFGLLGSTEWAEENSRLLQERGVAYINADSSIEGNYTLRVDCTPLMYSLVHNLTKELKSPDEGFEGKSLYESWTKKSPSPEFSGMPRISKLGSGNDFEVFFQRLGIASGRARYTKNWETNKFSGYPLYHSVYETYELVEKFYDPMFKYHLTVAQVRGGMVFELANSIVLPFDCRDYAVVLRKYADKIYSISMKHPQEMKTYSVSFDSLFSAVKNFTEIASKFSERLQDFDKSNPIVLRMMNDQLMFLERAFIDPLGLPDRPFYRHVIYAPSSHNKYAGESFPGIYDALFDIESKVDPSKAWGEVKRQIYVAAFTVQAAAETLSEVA
structure (smiles),measurement,setting,value
O=C(O)CCC(NC(=O)NC(CCCCNC(=O)C(Cc1ccc2ccccc2c1)NC(=O)c1ccc(NNC(=O)CN2CCN3CCN4CCN(CC2)CC(=O)[O][177Lu]([O]C(=O)C3)[O]C(=O)C4)nc1)C(=O)O)C(=O)O (centres unmarked) [177Lu-DOTA-HYNIC-iPSMA],patients exhibiting a reduction in PSA,"[1]; 11 patients, one to four cycles of 3.7 or 7.4 GBq every 8-10 weeks",Around 60%
same,"patients with a reduction in the number and size of metastatic lesions and/or uptake intensity, by imaging","[1]; 11 patients, one to four cycles of 3.7 or 7.4 GBq, 68Ga-PSMA-11 PET/CT",70%
same,metastatic lesion sites on 68Ga-PSMA-11 PET follow-up,"[1]; one patient, three cycles of treatment (FIG. 6)",decrease in size and number
same,maximum number of binding sites (Bmax),protein PSMA,5.89 ± 0.47 nM
same,elimination pathway,LNCaP-induced tumors,mainly renal
same,"uptake in tumors, % of the activity administered per gram of tissue",LNCaP-induced tumors,9.74±1.13 % ID/g
same,radiochemical purity (stability post-labelling),[2],more than 98%
same,"average dose absorbed, kidney","[3]; healthy subjects, kidney",0.88 mGy/MBq
same,"average dose absorbed, liver","[3]; healthy subjects, liver",0.28 mGy/MBq
same,"average dose absorbed, salivary glands","[3]; healthy subjects, salivary glands",1.17 mGy/MBq
same,"average dose absorbed, spleen","[3]; healthy subjects, spleen",0.23 mGy/MBq
same,uptake and excretion,[3]; healthy volunteers,mainly renal
same,"half life, second slow component (T1/2γ)","[3]; healthy volunteers, 185 MBq, ln 2/0.008",79.6 h
same,"half life, first slow component (T1/2β)","[3]; healthy volunteers, 185 MBq, ln 2/0.075",9.2 h
same,"half life, fast component (T1/2α)","[3]; healthy volunteers, 185 MBq, ln 2/0.614",1.1 h
same,radiochemical stability,[4],more than 98%
same,serum protein binding,[4],6.5±1.8%
same,toxicity or adverse effects,[5],did not present toxicity or adverse effects
O=C(O)CCC(NC(=O)NC(CCCCNC(=O)C(Cc1ccc2ccccc2c1)NC(=O)c1ccc(NNC(=O)CN2CCN3CCN4CCN(CC2)CC(=O)[O][Lu]([O]C(=O)C3)[O]C(=O)C4)nc1)C(=O)O)C(=O)O (centres unmarked) [177Lu-DOTA-HYNIC-iPSMA],Kd,protein PSMA,6.33 ± 2.69 nM
O=C([O-])CN1CCN(CC(=O)[O-])CCN(CC(=O)NCC2CCC(C(=O)N[C@@H](Cc3ccc4ccccc4c3)C(=O)NCCCC[C@H](NC(=O)N[C@@H](CCC(=O)O)C(=O)O)C(=O)O)CC2)CCN(CC(=O)[O-])CC1.[177Lu+3] (some centres unmarked) [Lu-PSMA-617],side-effects,prostate cancer,no severe side-effects
